Molecules are shown by their SMILES.

Three molecules from article PMC11078216, “Discovery of potent and selective activity-based probes (ABPs) for the deubiquitinating enzyme USP30” (RSC Chemical Biology, 2024) can be followed below.

For the test, the target named is T1, RTN1 (Homo sapiens, UniProt Q16799).
T1 construct: endogenous in cells; host or cells: HEK293T
T1 sequence (Q16799 1-776): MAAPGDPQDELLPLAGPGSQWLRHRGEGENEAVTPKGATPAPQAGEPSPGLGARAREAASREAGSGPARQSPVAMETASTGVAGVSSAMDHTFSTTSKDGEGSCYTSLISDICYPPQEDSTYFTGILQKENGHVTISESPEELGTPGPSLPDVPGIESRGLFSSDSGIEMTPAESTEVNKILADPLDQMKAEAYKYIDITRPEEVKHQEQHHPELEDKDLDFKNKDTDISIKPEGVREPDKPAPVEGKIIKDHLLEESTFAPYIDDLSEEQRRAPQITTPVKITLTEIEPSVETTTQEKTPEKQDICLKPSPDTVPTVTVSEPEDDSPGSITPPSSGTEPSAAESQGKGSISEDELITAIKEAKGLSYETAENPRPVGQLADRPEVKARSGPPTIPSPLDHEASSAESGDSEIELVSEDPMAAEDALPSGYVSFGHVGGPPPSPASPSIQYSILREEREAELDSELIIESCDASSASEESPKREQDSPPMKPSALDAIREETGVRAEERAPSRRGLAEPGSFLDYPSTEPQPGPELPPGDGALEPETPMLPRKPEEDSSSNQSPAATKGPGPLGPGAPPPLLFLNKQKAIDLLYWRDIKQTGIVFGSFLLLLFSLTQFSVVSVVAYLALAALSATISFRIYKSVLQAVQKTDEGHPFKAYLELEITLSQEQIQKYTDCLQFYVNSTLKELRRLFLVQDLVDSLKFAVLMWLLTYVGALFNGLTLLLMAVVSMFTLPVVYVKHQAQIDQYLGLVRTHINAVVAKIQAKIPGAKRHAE
Briefly: ABPP chemical proteomics (LC-MS/MS) in HEK293T cells. Type of test: cell-based. The protocol:
To explore the selectivity of IMP-2587 and IMP-2586 across the whole proteome, we performed quantitative activity-based protein profiling (ABPP) in HEK293T cells following treatment with IMP-2587 or IMP-2586 (Fig. 3a). After ABP incubation, cells were lysed, and probe-labelled proteins were ligated to biotinylated capture reagents.[27] […] USP30 was outcompeted by corresponding parent inhibitors for each ABP (Fig. 5b and d and Tables S3 and S5, ESI ^†), confirming the high potency and rapid engagement of IMP-2587 and IMP-2586 in cells. […] DESI1 and DESI2 are small ubiquitin-related modifier (SUMO) proteases,[3,29–32] and IMP-2587 and IMP-2586 may offer a starting point for future development of DESI ABPs. […]
d) Live cell probe incubation, lysate click chemistry and precipitation 6-well HEK293T cells were incubated with media containing compounds ABP 2 and ABP 4 at indicated […]
The cells were washed with PBS and lysed with lysis buffer (50 μL (1% (v/v) Triton X-100, 0.1% (w/v) sodium dodecyl sulfate (SDS), EDTA-free complete protease inhibitor cocktail (1×, Roche) in PBS on ice for 10 min. The lysates were scraped and transferred to corresponding Lo-Bind Eppendorfs. Each lysate was sonicated for 1 minute, and the samples centrifuges at 5,000 x g at 4 °C for 5 minutes to pellet insoluble cellular debris. The supernatant was collected, and protein concentration was determined using the DC Protein Assay (Bio-Rad) as per manufacturer’s instructions, and normalised to lowest concentrated sample (e.g. 1 mg/mL, using lysis buffer). The following “click mixture” was prepared separately, preparing 6 μL for every 100 μL of […]
Capture reagent (AzRB/AzT for ABP 2, YnT/YnB for ABP 4 10 mM in DMSO, 1 vol; final concentration […]
CuSO4 (50 mM in water, 2 vol; final concentration in reaction 1 mM)
TCEP (50 mM in water, 2 vol; final concentration in reaction 1 mM)
TBTA (10 mM in DMSO, 1 vol; final concentration in reaction 100 µM)
The click mixture was vortexed and incubated at room temperature for 2 min before 6 μL of the mixture was added to every 100 μL of lysate. […]

With `N#CN1CC[C@@H](NC(=O)c2cc(-c3ccccc3Oc3ccc(N=[N+]=[N-])cc3)n[nH]2)C1` [IMP-2586], the “Difference (log2 fold change of enrichment)” value (IMP-2586 labelling vs DMSO, 30 nM, 10 min, HEK293T (Table S4, Fig.5c)) was determined as 1.53.
`C#Cc1cccc(-c2cc(NC(=O)CC3CCN(C#N)C3)on2)c1` (stereo not drawn) [IMP-2587]: the “Difference (log2 fold change of enrichment)” value (IMP-2587 labelling vs DMSO, 30 nM, 10 min, HEK293T (Table S2, Fig.5a)) was found to be 1.77.
On to `N#CN1CC[C@H](CC(=O)Nc2cc(-c3cccc(Cl)c3)no2)C1` [compound 1, reference compound], for which the “Difference (log2 fold change of enrichment)” value (compound 1 out-competition with IMP-2587 labelling, HEK293T (Table S3, Fig.5b)) is reported as -0.69.
